In ChEMBL document CHEMBL1159258, “Identification of the glycosidase inhibitors swainsonine and calystegine B2 in Weir vine (Ipomoea sp. Q6 [aff. calobra]) and correlation with toxicity” (J Nat Prod, 1995):

Assays:
Canavalia ensiformis = experiment: Inhibition of jack bean alpha-mannosidase at 25 to 30 ng/mL by colorimetric assay
[1] = target: T1, Alpha-galactosidase (Aspergillus niger) (UniProt Q9Y865); experiment: Inhibition of Aspergillus niger alpha-galactosidase at 1.2 ug/mL by colorimetric assay
T1 sequence (whole entry): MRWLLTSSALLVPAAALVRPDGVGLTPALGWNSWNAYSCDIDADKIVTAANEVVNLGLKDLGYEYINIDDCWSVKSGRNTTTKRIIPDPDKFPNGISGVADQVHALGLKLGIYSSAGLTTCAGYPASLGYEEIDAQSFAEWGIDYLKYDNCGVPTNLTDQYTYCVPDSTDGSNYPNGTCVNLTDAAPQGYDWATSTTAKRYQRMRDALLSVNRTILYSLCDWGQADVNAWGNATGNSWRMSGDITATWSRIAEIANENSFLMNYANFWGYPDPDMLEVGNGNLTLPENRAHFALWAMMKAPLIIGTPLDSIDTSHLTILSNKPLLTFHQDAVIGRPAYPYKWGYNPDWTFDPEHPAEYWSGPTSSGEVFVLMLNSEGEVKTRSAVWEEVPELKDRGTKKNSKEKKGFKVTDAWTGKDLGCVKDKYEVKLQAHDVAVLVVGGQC

Prunus dulcis = experiment: Inhibition of almond beta-glucosidase at 0.6 ug/mL by colorimetric assay

Structure (SMILES) | inhibition (Canavalia ensiformis) [%] | inhibition [1] [%] | inhibition (Prunus dulcis) [%]
O[C@H]1[C@H]2[C@H](O)CCCN2C[C@H]1O | 50 |  | 
O[C@@H]1[C@@H](O)[C@H](O)[C@]2(O)CC[C@H]1N2 |  | 50 | 50
